Data from paper PMC9964404, “Molecular Modeling and In Vitro Evaluation of Piplartine Analogs against Oral Squamous Cell Carcinoma” (Molecules, 2023).
Read-outs that look alike come from different tables or passages of the source.

Columns and labels:
SCC9 cells [1] = assay: MTT cell viability (cytotoxicity) assay, SCC9; type: cell-based, human; details: Homo sapiens
Procedure: (§1) SCC cells (SCC9 and SCC4), derived from human tongue OSCC, were obtained by (ATCC® CRL-1629 and CRL-1624) and maintained in DMEM/F12 1:1 medium (Dulbecco’s modified Eagle’s medium and Ham’s F12 medium, Gibco (Thermo Fisher, Waltham, MA, USA), supplemented with 10% (v/v) FBS (Fetal Bovine Serum; Invitrogen, Thermo Fisher, Waltham, MA, USA) and 400 ng/mL hydrocortisone (Sigma-AldrichCo., St. Louis, MO, USA). Primary normal gingival fibroblast human (PCS201 018TM) and other tumor cells B16-F10 (CRL-6475), Hep G2 (HB-8065), and HT-29 (HTB-38) were also obtained at ATCC and maintained in DMEM supplemented with 10% (v/v) FCS. Cells were cultured in a humidified environment containing 5% CO2 at 37 °C. For all experiments, the compounds were solubilized in DMSO (Sigma-Aldrich) for a final concentration of 100 mM. From this dilution, other concentrations were made to carry out the cell viability assay. Carboplatin (Fauldcarbo®; Libbs Farmacêutica, São Paulo, SP, Brazil) was used as a control antitumor compound.
(§2) The viability of cancer cells and primary fibroblasts was tested using the MTT assay as described in MACHADO et al., 2021 [49]. Briefly, cancer cells (5 × 10^3 cells/well) were plated in duplicate in a 96-well plate, as indicated. DMSO was diluted in culture medium at the same concentrations and was used as a negative control, representing 100% cell viability. After 48 h of treatment, cells were incubated for 3.5 h with 5 mg/mL of MTT reagent (3,4,5-dimethiazol-2,5-diphenyltetrazoliumbromide) (Sigma-Aldrich Co., St. Louis, MO, USA) diluted in culture medium. Subsequently, the formazan crystals were dissolved by MTT solvent (50% Methanol and 50% DMSO), and the absorbance was read at 560 nm using the EPOCH microplate spectrophotometer (BioTekInstruments, Winooski, VT, USA).
(§3) IC50 values for the MTT assay were obtained by non-linear regression using GraphPad Prism 5.0 software (GraphPad, San Diego, CA, USA) from at least three independent experiments. Data are presented as means, ± standard deviation (SD). A log dose response (inhibitor) vs. response curve using the least square method was used to determine the IC50 and SD of the data. The selectivity index was calculated as: S.I. = IC50 of the compound in fibroblasts/IC50 of the same compound in tumor cells.

[2] = tested on: Primary Gingival Fibroblast; assay: MTT cell viability assay, normal fibroblasts; type: cell-based, human; details: Homo sapiens, Fibroblast, 48 h treatment
Procedure: as §1, §2, §3

SCC4 cells = assay: MTT cell viability assay, SCC4; type: cell-based, human; details: Homo sapiens, SCC-4, 48 h treatment, read-out: SCC4 IC50
Procedure: as §1, §2, §3

[3] = tested on: Oral Tumor Cells (SCC9, SCC4); assay: MTT cell viability assay, average of OSCC lines SCC9 and SCC4; type: cell-based, human; details: Homo sapiens
Procedure: as §1, §2
(§4) IC50 values for the MTT assay were obtained by non-linear regression using GraphPad Prism 5.0 software (GraphPad, San Diego, CA, USA) from at least three independent experiments. […] The selectivity index was calculated as: S.I. = IC50 of the compound in fibroblasts/IC50 of the same compound in tumor cells.

B16-F10 (melanoma) = assay: MTT cell viability assay, B16-F10; type: cell-based; details: Mus musculus
Procedure: as §1, with “For all experiments, the compounds were solubilized in DMSO (Sigma-Aldrich) for a final concentration of 100 mM. From this dilution, other concentrations were made to carry out the cell viability assay. Carboplatin (Fauldcarbo®; Libbs Farmacêutica, São Paulo, SP, Brazil) was used as a control antitumor compound.” left out
(§5) The viability of cancer cells and primary fibroblasts was tested using the MTT assay as described in MACHADO et al., 2021 [49]. […] Subsequently, the formazan crystals were dissolved by MTT solvent (50% Methanol and 50% DMSO), and the absorbance was read at 560 nm using the EPOCH microplate spectrophotometer (BioTekInstruments, Winooski, VT, USA).
as §4

HEP G2 (hepatocarcinoma) = assay: MTT cell viability assay, HEP G2; type: cell-based
Procedure: as §1, with “For all experiments, the compounds were solubilized in DMSO (Sigma-Aldrich) for a final concentration of 100 mM. From this dilution, other concentrations were made to carry out the cell viability assay. Carboplatin (Fauldcarbo®; Libbs Farmacêutica, São Paulo, SP, Brazil) was used as a control antitumor compound.” left out
as §5, §4

[4] = tested on: HT-29 (colon adenocarcinoma); assay: MTT cell viability assay, HT-29; type: cell-based
Procedure: as §1, with “For all experiments, the compounds were solubilized in DMSO (Sigma-Aldrich) for a final concentration of 100 mM. From this dilution, other concentrations were made to carry out the cell viability assay. Carboplatin (Fauldcarbo®; Libbs Farmacêutica, São Paulo, SP, Brazil) was used as a control antitumor compound.” left out
as §5, §4

Hemolysis assay = type: cell-based; details: human erythrocytes
Procedure: Human blood was used as approved by the Research Ethics Committee of the Fluminense Federal University–Nova Friburgo, RJ (CAAE: 43134721.4.0000.5626). The erythrocytes were collected by centrifugation at 1500 rpm for 15 min, washed with PBS (phosphate buffer saline) and 10 mM glucose, and counted in an automatic cells counter (Thermo Fisher, Waltham, MA, USA). The erythrocytes were then plated in 96-well plates at a concentration of 4 × 10^8/well in triplicate, and 10 µL of the compounds were added at a final concentration of 1000 µM in PBS with glucose (final volume of 100 µL). Ten microliters of PBS were used as negative control and 10 µL of PBS with 0.1% Triton ×100 as a positive control. Data reading was performed with EPOCH (BioTek Instruments, Winooski, VT, USA) at 540 nm absorbance, and statistical data were generated with the GRAPHPAD Prism 5.0 program (Intuitive Software for Science, San Diego, CA, USA).

SCC9 cells [5] = assay: Phosphatidylserine exposure analysis (annexin V-FITC / P.I., flow cytometry); type: cell-based, human; details: SCC9, 48 h
Procedure: Cells of the SCC9 cell line were plated in six-well plates (5 × 10^5 cells/well), trypsinized 48 h after treatment, labeled using the Annexin V-FITC Apoptosis Detection Kit according to the manufacturer’s protocol (#BMS500FI/300, Invitrogen), and analyzed by flow cytometry.

SCC9 cells [6] = assay: SubG1 analysis (propidium iodide DNA content); type: cell-based, human; details: SCC9, 48 h
Procedure: (§6) To evaluate the action of the compound 9 on the cell cycle, cells of the SCC9 lineage were plated in a six-well plate (5 × 10^5 cells/well) as described in LUCENA et al., 2016. After 48h of treatment, cells were trypsinized and stained with propidium iodide (75 µM; Sigma) in the presence of NP-40 (Sigma). DNA content was analyzed by collecting 10,000 events using a FACScalibur flow cytometer. Data were analyzed using CellQuest (BD Biosciences) and FlowJo (Tree Star Inc., Ashland, OR, USA) software. (Version 9.9.4).

SCC9 cells [7] = assay: Caspase 3/7 analysis (flow cytometry); type: cell-based, human; details: SCC9, 2 × IC50, 48 h
Procedure: For active caspase detection, 5 × 10^4 SCC9 cells were plated in a 24-well plate containing 1 mL of DMEM/F12 with 10% FBS per well. CellEvent™ Caspase-3/7 reagent (#R37111, Invitrogen) was diluted in culture medium according to the manufacturer’s instructions. Twenty-four hours after plating, cells were treated with Caspase-3/7 reagent and 2× IC50 of 9 or DMSO as a control. Cells were analyzed by flow cytometry after 48 h of treatment.

SCC9 cells [8] = assay: Cell cycle analysis (propidium iodide); type: cell-based, human; details: SCC9, 48 h
Procedure: as §6

mouse erythrocytes = assay: Hemolytic activity in mouse erythrocytes; type: cell-based; details: mouse erythrocytes as printed

`COc1ccc(COC(=O)c2cc(OC)c(OC)c(OC)c2)cc1` [Compound 9, 4-Methoxy-benzyl 3,4,5–trimethoxybenzoate] gave an IC50 (SCC9 cells [1]; SCC-9, 48 h, read-out: SCC9 IC50 (µg/mL)) of 15.4 µg/mL, an IC50 (SCC9 cells [1]; SCC-9, 48 h treatment, MTT, read-out: SCC9 IC50) of 46.2 µM and an IC50 ([2]; read-out: Primary Gingival Fibroblast IC50) of 741 µM. For the same molecule, the IC50 ([2]; read-out: Primary Gingival Fibroblast IC50 (µg/mL)) was 246 µg/mL, the IC50 (SCC4 cells) was 49.8 µM and the IC50 [3] was 48 µM. For the same molecule, the IC50 (B16-F10 (melanoma)) was 73.3 µM, the IC50 (HEP G2 (hepatocarcinoma); HEP G2) was 6.63 µM and the IC50 (HEP G2 (hepatocarcinoma); Homo sapiens, HepG2, HEP G2) was < 10 µM. The IC50 ([4]; HT-29) was 7.31 µM, the IC50 ([4]; Homo sapiens, HT-29, HT-29) was < 10 µM and the hemolysis at 1000 µM (Hemolysis assay) was < 1%. The “annexin V single- and/or double-positive (PI+) labeling” value (SCC9 cells [5]) was ~ 17%, the “increase in annexin V labeling versus control” value (SCC9 cells [5]) was “four-fold increase” and the “DNA fragmentation (SubG1 DNA content)” value (SCC9 cells [6]) was ~ 21%. The “Active caspase 3/7” value (SCC9 cells [7]) was ~ 66%, the “Cycle Phase % G2/M” value (SCC9 cells [8]) was ~ 59% and the hemolytic activity (mouse erythrocytes) was “did not reveal hemolytic activity”.
